Experimental data as given in paper PMC4552634, “A New Set of Chemical Starting Points with Plasmodium falciparum Transmission-Blocking Potential for Antimalarial Drug Discovery” (PLoS ONE, 2015).
pIC50: −log10 of the molar value. Where two headings read alike, the source gives them in different places.

What was measured:
[1] = test system: P. falciparum asexual stages; details: asexual stages; TCAMS data; read-out: IC50 asexual; cited from earlier work
HepG2 cells = assay: Cytotoxicity in HepG2 cells (intracellular ATP, ATPlite, 48 h); format: cell-based, human; details: HepG2 cells; IC50 per ratio column head; unit inferred
[2] = test system: P. falciparum stage V gametocytes; assay: Gametocytocidal ATP bioluminescence assay (single point 5 μM and 1 μM, dose-response); format: cell-based, Plasmodium falciparum; details: for Ratio IC50 HepG2/IC50 P. falciparum: IC50 HepG2 divided by IC50 P. falciparum gametocytes; for IC50: P. falciparum gametocytes, average, read-out: IC50 Pf Gametocytes average, IC50 (µM) average; for pIC50: sexual stages (gametocytes), dose-response, read-out: IC50 sexual
Protocol: Purified stage IV-V gametocytes were obtained as previously described [10]. Single point ATP bioluminescence assay and dose–response of positive hits was determined in accordance with the previously published protocol [10].

| SMILES | pIC50 [1] | pIC50 (HepG2 cells) | Ratio IC50 HepG2/IC50 P. falciparum [2] | IC50 [2] [µM] | pIC50 [2] |
| --- | --- | --- | --- | --- | --- |
| C[C@H](Cc1ccc(CCc2ccc(C[C@@H](C)NC[C@H](O)c3cccc(Cl)c3)cc2)cc1)NC[C@H](O)c1cccc(Cl)c1 [TCMDC-131551] | 6.03 | 5.51 | 12 | 0.27 | 6.57 |
| COc1ccccc1CCNc1nc(C)cc(N[C@@H](Cc2ccccc2)C(=O)NCCOc2ccccc2)n1 [TCMDC-134862] | 5.92 | 4.95 | <1 | > 10 | – |
| CC(Cc1ccc(OCCCCOc2ccccc2)cc1)NCCC1CCCN1C (centres unmarked) [TCMDC-140017] | 7.40 | > 5.81 | <16 | 0.095 | – |
| CCN(CC)CCOc1ccc(C(O)(C#CC(O)(c2ccc(OCCN(CC)CC)cc2)c2ccc([N+](=O)[O-])cc2)c2ccc([N+](=O)[O-])cc2)cc1 (centres unmarked) [TCMDC-137201] | 5.76 | 5.21 | 28 | 0.22 | 6.65 |
| C=C(C)Cn1cc(C2CCN(CCN3CCC(CNC(=O)c4ccc(-c5ccc(C#N)cc5)cc4)CC3)CC2)c2ccccc21 [TCMDC-138854] | 6.36 | 5.43 | 1.26 | 2.93 | – |
| COc1cc2ccccc2c(OC)c1CNCCCCCCNCc1c(OC)cc2ccccc2c1OC [TCMDC-137843] | 6.01 | 5.37 | 13 | 0.32 | 6.50 |
| O=C(/C=C/c1ccc(Cl)c(Cl)c1)NCCCCCN1CCCC(CNS(=O)(=O)c2cccc(C(F)(F)F)c2)C1 (centres unmarked) [TCMDC-139597] | 6.02 | 5.42 | 0.4 | 8.63 | – |
| O=C(O)CCSSc1cccc[n+]1[O-] [TCMDC-141973] | 6.09 | 5.11 | 29 | 0.27 | – |
| CN(CCCCN)Cc1ccc(-c2ccc(Cl)cc2)cc1 [TCMDC-140123] | 6.05 | 5.40 | 10 | 0.41 | 6.38 |
| Nc1c(Cl)cc(C(O)CNCCCCCOCCCc2ccc(O)c3ncccc23)cc1Cl.O=C(O)/C=C/C(=O)O (centres unmarked) [TCMDC-132088] | 6.00 | 5.35 | 10 | 0.45 | 6.34 |
| O=C(C1CC1c1ccccc1)N(Cc1ccc(-c2ccc(CNCCc3ccccc3)cc2)cc1)C1CCNCC1 (centres unmarked) [TCMDC-141443] | 5.96 | 5.17 | 17 | 0.39 | 6.41 |
| CCc1cc(COc2ccc(CNCCC(C)C)cc2I)c(OCc2ccccc2)c(COc2ccc(CNCCC(C)C)cc2I)c1 [TCMDC-137255] | 5.95 | 5.24 | 5.71 | 1.02 | 5.99 |
| CCCCOc1ccc(C(=O)C(CCC(CNC(C)(C)C)C(=O)c2ccc(OCCCC)cc2)CNC(C)(C)C)cc1 (centres unmarked) [TCMDC-124120] | 5.99 | 5.51 | 10 | 0.3 | – |
| CN1CCCN(Cc2cccc(-c3ccc(NS(=O)(=O)c4cccc5cccnc45)cc3)c2)CC1 [TCMDC-136481] | 6.02 | 5.19 | <1 | > 10 | – |
| CCc1c(CCNCCc2cccc(CCNCCc3ccc(OC)c(OC)c3CC)c2)ccc(OC)c1OC [TCMDC-132056] | 6.44 | 5.39 | 7.47 | 0.55 | – |
| CCCCOc1c(CCNCCCCNCCc2cc(OC)c3ccccc3c2OCCCC)cc(OC)c2ccccc12 [TCMDC-137848] | 6.03 | 5.51 | 39 | 0.08 | – |

| SMILES | pIC50 [1] | pIC50 (HepG2 cells) | Ratio IC50 HepG2/IC50 P. falciparum [2] | IC50 [2] [µM] | pIC50 [2] |
| --- | --- | --- | --- | --- | --- |
| CC(CCCC(=O)Nc1ccc(CC(C)NCCc2cccc(Cl)c2)cc1)NCCc1cccc(Cl)c1 (centres unmarked) [TCMDC-139798] | 6.20 | 5.35 | 5.52 | 0.82 | 6.09 |
| CC(C)CNCc1cccc(-c2cccc(CN(CCCN3CCN(C)CC3)C(=O)/C=C/c3ccccc3)c2)c1 [TCMDC-140541] | 6.03 | 5.13 | 13 | 0.56 | 6.25 |
| COc1cc2ccccc2cc1CCNCCCCNCCc1cc2ccccc2cc1OC [TCMDC-137944] | 6.39 | 5.47 | 32 | 0.11 | 6.98 |
| CCN(CC)CCOc1ccc(C(O)(C#CC(O)(c2ccccc2)c2ccc(OCCN(CC)CC)cc2)c2ccccc2)cc1 (centres unmarked) [TCMDC-137197] | 5.88 | 5.44 | 5.34 | 0.69 | 6.16 |
| COc1c(CCNCCCCNCCc2cc(Cl)c3ccccc3c2OC)cc(Cl)c2ccccc12 [TCMDC-137869] | 6.77 | 5.47 | 40 | 0.08 | 7.08 |
| CC(Cc1ccc(CNC(=O)NCc2ccc(CC(C)NCCc3cccc(Cl)c3)cc2)cc1)NCCc1cccc(Cl)c1 (centres unmarked) [TCMDC-139648] | 6.16 | 5.38 | 7 | 0.61 | – |
| Oc1c(CN2CCC(Cc3ccccc3)CC2)cc(Cl)c2cccnc12 [TCMDC-124594] | 6.06 | 5.02 | 16 | 0.6 | – |
| CCCCc1ccc(CCNCCCCCCNCCc2ccc(O)c(O)c2)cc1 [TCMDC-131281] | 5.97 | 5.09 | 15 | 0.54 | 6.26 |
| C=CCOc1ccc2ccccc2c1CNCCCCCCNCc1c(OCC=C)ccc2ccccc12 [TCMDC-137340] | 6.07 | > 5.81 | <6 | 0.25 | – |
| Cc1oc(-c2ccc(Cl)cc2)cc1C(=O)NCCC1CCN(CCCCCNC(=O)/C=C/c2ccc(Cl)c(Cl)c2)CC1 [TCMDC-140009] | 6.35 | 5.39 | 0.755 | 5.43 | – |
| C=CCC1OC(=O)c2cc(OC)cc(OC)c21 (centres unmarked) [TCMDC-138677] | 6.46 | > 5.81 | <2.6 | 0.6 | – |
| CC1(C)CC(NCCCCCCCOc2ccc(OCc3ccccc3)cc2)CC(C)(C)N1 [TCMDC-138958] | 6.08 | 5.52 | 4.41 | 0.68 | – |
| CCn1c(-c2nonc2N)nc2c(-c3cc4ccccc4s3)ncc(C(=O)N3CCC(N)C3)c21 (centres unmarked) [TCMDC-135281] | 6.06 | 5.46 | 10 | 0.35 | – |
| CC(C)CNCc1cccc(-c2ccccc2CN(C(=O)NCCc2ccccc2)C2CCN(Cc3ccccc3)CC2)c1 [TCMDC-140608] | 5.93 | 5.18 | <1 | > 10 | – |
| CCn1c(Sc2ccc([N+](=O)[O-])c(C#N)c2)nnc1-c1cccc(Cl)c1 [TCMDC-135234] | 6.06 | < 4.60 | >8 | 3.04 | – |
